# Data from US6645918B1, “N-([1,2,4]triazoloazinyl)thiophenesulfonamide compounds and their use as herbicides” (Dow AgroSciences LLC, priority 2000, dated 2003).
# What was measured:
# Format in all cases: in vivo
# [1] = tested on: pigweed (Amaranthus retroflexus); test: Preemergence herbicidal activity, pigweed; conditions: soil spray, visual after 3 weeks, 0 no injury, 100 complete kill or no germination
# Procedure: (§1) The soil matrix was contained in plastic pots with a surface area of 161 square centimeters. When required to ensure good germination and healthy plants, a fungicide treatment and/or other chemical or physical treatment was applied. A weighed amount, determined by the highest rate to be tested, of each test compound was placed in a 20 mL glass vial and was dissolved in 8 mL of a 97:3 v/v (volume/volume) mixture of acetone and dimethyl sulfoxide to obtain concentrated stock solutions. […] The stock solutions obtained were diluted with a 99.9:0.1 mixture of water and Tween® 155 surfactant (ethoxylated sorbitan fatty acid ester) to obtain application solutions of known concentration. The solutions containing the highest concentration to be tested were prepared by diluting 4 mL aliquots of the stock solution with 8.5 mL of the mixture and lower concentrations were prepared by dilution of appropriate smaller portions of the stock solution. A 2.5 mL aliquot of each solution of known concentration was sprayed evenly onto the soil of each seeded pot using a Cornwall 5.0 mL glass syringe fitted with a TeeJet TN-3 hollow cone nozzle to obtain thorough coverage of the soil in each pot. Control pots were sprayed in the same manner with the aqueous mixture. A highest application rate of 4.48 kg/ha is achieved when 50 mg of test compound is employed. The treated pots and control pots were placed in a greenhouse with an approximately 15 hr photoperiod which was maintained at about 23-29° C. during the day and 22-28° C. during the night. Nutrients and water were added on a regular basis and supplemental lighting was provided with overhead metal halide 1000 Watt lamps as necessary. The water was added by top-irrigation. After 3 weeks the condition of the test plants that germinated and grew as compared with that of the untreated plants that germinated and grew was determined visually and scored on a scale of 0 to 100 percent where 0 corresponds to no injury and 100 corresponds to complete kill or no germination.
# [2] = tested on: wild buckwheat (Polygonum convolvulus); test: Postemergence herbicidal activity, wild buckwheat; conditions: foliar spray, visual after 2 weeks, 0 no injury, 100 complete kill
# Procedure: (§2) Seeds of the desired test plant species were planted in Grace-Sierra MetroMix® 306 planting mixture, which typically has a pH of 6.0 to 6.8 and an organic matter content of about 30 percent, in plastic pots with a surface area of 64 square centimeters. When required to ensure good germination and healthy plants, a fungicide treatment and/or other chemical or physical treatment was applied. The plants were grown for 7-21 days in a greenhouse with an approximately 15 hr photoperiod which was maintained at about 23-29° C. during the day and 22-28° C. during the night. Nutrients and water were added on a regular basis and supplemental lighting was provided with overhead metal halide 1000 Watt lamps as necessary. The plants were employed for testing when they reached the first or second true leaf stage. A weighed amount of each test compound, determined by the highest rate to be tested, was placed in a 20 mL glass vial and was dissolved in 4 mL of a 97:3 v/v (volume/volume) mixture of acetone and dimethyl sulfoxide to obtain concentrated stock solutions. […] The concentrated stock solutions obtained were diluted with an aqueous mixture containing acetone, water, iso-propyl alcohol, dimethyl sulfoxide, Atplus 411F crop oil concentrate, and Triton X-155 surfactant (methylenebisdiamyl phenoxy polyethoxy ethanol) in a 48.5:39:10:1.5:1.0:0.02 v/v ratio to obtain spray solutions of known concentration. The solutions containing the highest concentration to be tested were prepared by diluting 2 mL aliquots of the stock solution with 13 mL of the mixture and lower concentrations were prepared by dilution of appropriate smaller portions of the stock solution. Approximately 1.5 mL aliquots of each solution of known concentration were sprayed evenly onto each of the test plant pots using a DeVilbiss atomizer driven by compressed air pressure of 2 to 4 psi (140 to 280 kilopascals) to obtain thorough coverage of each plant. Control plants were sprayed in the same manner with the aqueous mixture. In this test an application rate of 1 ppm results in the application of approximately 1 g/ha. The treated plants and control plants were placed in a greenhouse as described above and watered by sub-irrigation to prevent wash-off of the test compounds. After 2 weeks the condition of the test plants as compared with that of the untreated plants was determined visually and scored on a scale of 0 to 100 percent where 0 corresponds to no injury and 100 corresponds to complete kill.
# [3] = tested on: pigweed (Amaranthus retroflexus); test: Postemergence herbicidal activity, pigweed; conditions: foliar spray, visual after 2 weeks, 0 no injury, 100 complete kill
# Procedure: as §2
# [4] = tested on: crabgrass (Digitaria sanguinalis); test: Preemergence herbicidal activity, crabgrass; conditions: soil spray, visual after 3 weeks, 0 no injury, 100 complete kill or no germination
# Procedure: as §1
# [5] = tested on: giant foxtail (Setaria faberi); test: Preemergence herbicidal activity, giant foxtail; conditions: soil spray, visual after 3 weeks, 0 no injury, 100 complete kill or no germination
# Procedure: as §1
# [6] = tested on: chickweed (Stellaria media); test: Postemergence herbicidal activity, chickweed; conditions: foliar spray, visual after 2 weeks, 0 no injury, 100 complete kill
# Procedure: as §2
# [7] = tested on: blackgrass (Alopecurus myosuroides); test: Preemergence herbicidal activity, blackgrass; conditions: soil spray, visual after 3 weeks, 0 no injury, 100 complete kill or no germination
# Procedure: as §1
# [8] = tested on: cocklebur (Xanthium strumarium); test: Postemergence herbicidal activity, cocklebur; conditions: foliar spray, visual after 2 weeks, 0 no injury, 100 complete kill
# Procedure: as §2
# [9] = tested on: cocklebur (Xanthium strumarium); test: Preemergence herbicidal activity, cocklebur; conditions: soil spray, visual after 3 weeks, 0 no injury, 100 complete kill or no germination
# Procedure: as §1
# [10] = tested on: lambsquarters (Chenopodium album); test: Preemergence herbicidal activity, lambsquarters; conditions: soil spray, visual after 3 weeks, 0 no injury, 100 complete kill or no germination
# Procedure: as §1
# [11] = tested on: giant foxtail (Setaria faberi); test: Postemergence herbicidal activity, giant foxtail; conditions: foliar spray, visual after 2 weeks, 0 no injury, 100 complete kill
# Procedure: as §2
# [12] = tested on: blackgrass (Alopecurus myosuroides); test: Postemergence herbicidal activity, blackgrass; conditions: foliar spray, visual after 2 weeks, 0 no injury, 100 complete kill
# Procedure: as §2
# [13] = tested on: morningglory (Ipomoea hederacea); test: Postemergence herbicidal activity, morningglory; conditions: foliar spray, visual after 2 weeks, 0 no injury, 100 complete kill
# Procedure: as §2
# wild oats (Avena fatua) [14] = test: Postemergence herbicidal activity, wild oats; conditions: foliar spray, visual after 2 weeks, 0 no injury, 100 complete kill
# Procedure: as §2
# [15] = tested on: barnyardgrass (Echinochloa crus-galli); test: Preemergence herbicidal activity, barnyardgrass; conditions: soil spray, visual after 3 weeks, 0 no injury, 100 complete kill or no germination
# Procedure: as §1
# [16] = tested on: lambsquarters (Chenopodium album); test: Postemergence herbicidal activity, lambsquarters; conditions: foliar spray, visual after 2 weeks, 0 no injury, 100 complete kill
# Procedure: as §2
# [17] = tested on: Rox orange sorghum (Sorghum bicolor); test: Preemergence herbicidal activity, Rox orange sorghum; conditions: soil spray, visual after 3 weeks, 0 no injury, 100 complete kill or no germination
# Procedure: as §1
# [18] = tested on: velvetleaf (Abutilion theophrasti); test: Postemergence herbicidal activity, velvetleaf; conditions: foliar spray, visual after 2 weeks, 0 no injury, 100 complete kill
# Procedure: as §2
# [19] = tested on: morningglory (Ipomoea hederacea); test: Preemergence herbicidal activity, morningglory; conditions: soil spray, visual after 3 weeks, 0 no injury, 100 complete kill or no germination
# Procedure: as §1
# [20] = tested on: Rox orange sorghum (Sorghum bicolor); test: Postemergence herbicidal activity, Rox orange sorghum; conditions: foliar spray, visual after 2 weeks, 0 no injury, 100 complete kill
# Procedure: as §2
# wild oats (Avena fatua) [21] = test: Preemergence herbicidal activity, wild oats; conditions: soil spray, visual after 3 weeks, 0 no injury, 100 complete kill or no germination
# Procedure: as §1
# [22] = tested on: wild poinsettia (Euphorbia heterophylla); test: Preemergence herbicidal activity, wild poinsettia; conditions: soil spray, visual after 3 weeks, 0 no injury, 100 complete kill or no germination
# Procedure: as §1
# [23] = tested on: velvetleaf (Abutilion theophrasti); test: Preemergence herbicidal activity, velvetleaf; conditions: soil spray, visual after 3 weeks, 0 no injury, 100 complete kill or no germination
# Procedure: as §1
# viola (Viola tricolor) = test: Postemergence herbicidal activity, viola; conditions: foliar spray, visual after 2 weeks, 0 no injury, 100 complete kill
# Procedure: as §2
structure (smiles),measurement,setting,value
COc1cc(OC)n2nc(NS(=O)(=O)c3sc(Cl)cc3OC)nc2n1 [Compound 4],AMARE preemergence injury score 0-100,[1]; 35 g/Ha,100%
same,POLCO postemergence injury score 0-100,[2]; 15.6 ppm,90%
same,AMARE postemergence injury score 0-100,[3]; 15.6 ppm,100%
same,DIGSA preemergence injury score 0-100,[4]; 35 g/Ha,90%
same,SETFA preemergence injury score 0-100,[5]; 35 g/Ha,90%
same,STEME postemergence injury score 0-100,[6]; 15.6 ppm,60%
same,ALOMY preemergence injury score 0-100,[7]; 35 g/Ha,95%
same,XANST postemergence injury score 0-100,[8]; 15.6 ppm,60%
same,XANST preemergence injury score 0-100,[9]; 35 g/Ha,0%
same,CHEAL preemergence injury score 0-100,[10]; 35 g/Ha,80%
same,SETFA postemergence injury score 0-100,[11]; 15.6 ppm,85%
same,ALOMY postemergence injury score 0-100,[12]; 15.6 ppm,70%
same,IPOHE postemergence injury score 0-100,[13]; 15.6 ppm,60%
same,AVEFA postemergence injury score 0-100,wild oats (Avena fatua) [14]; 15.6 ppm,60%
same,ECHCG preemergence injury score 0-100,[15]; 35 g/Ha,0%
same,CHEAL postemergence injury score 0-100,[16]; 15.6 ppm,90%
same,SORBI preemergence injury score 0-100,[17]; 35 g/Ha,80%
same,ABUTH postemergence injury score 0-100,[18]; 15.6 ppm,70%
same,IPOHE preemergence injury score 0-100,[19]; 35 g/Ha,50%
same,SORBI postemergence injury score 0-100,[20]; 15.6 ppm,70%
same,AVEFA preemergence injury score 0-100,wild oats (Avena fatua) [21]; 35 g/Ha,60%
same,EPHHL preemergence injury score 0-100,[22]; 35 g/Ha,40%
same,ABUTH preemergence injury score 0-100,[23]; 35 g/Ha,70%
same,VIOTR postemergence injury score 0-100,viola (Viola tricolor); 15.6 ppm,60%
COc1csc(Cl)c1S(=O)(=O)Nc1nc2c(Cl)cnc(OC)n2n1 [Compound 20],AMARE preemergence injury score 0-100,[1]; 17.5 g/Ha,80%
same,POLCO postemergence injury score 0-100,[2]; 31.3 ppm,90%
same,AMARE postemergence injury score 0-100,[3]; 31.3 ppm,95%
same,DIGSA preemergence injury score 0-100,[4]; 17.5 g/Ha,85%
same,SETFA preemergence injury score 0-100,[5]; 17.5 g/Ha,50%
same,STEME postemergence injury score 0-100,[6]; 31.3 ppm,85%
same,ALOMY preemergence injury score 0-100,[7]; 17.5 g/Ha,90%
same,XANST postemergence injury score 0-100,[8]; 31.3 ppm,100%
same,XANST preemergence injury score 0-100,[9]; 17.5 g/Ha,60%
same,CHEAL preemergence injury score 0-100,[10]; 17.5 g/Ha,70%
same,SETFA postemergence injury score 0-100,[11]; 31.3 ppm,50%
same,ALOMY postemergence injury score 0-100,[12]; 31.3 ppm,30%
same,IPOHE postemergence injury score 0-100,[13]; 31.3 ppm,75%
same,AVEFA postemergence injury score 0-100,wild oats (Avena fatua) [14]; 31.3 ppm,70%
same,ECHCG preemergence injury score 0-100,[15]; 17.5 g/Ha,95%
same,CHEAL postemergence injury score 0-100,[16]; 31.3 ppm,75%
same,SORBI preemergence injury score 0-100,[17]; 17.5 g/Ha,90%
same,ABUTH postemergence injury score 0-100,[18]; 31.3 ppm,85%
same,IPOHE preemergence injury score 0-100,[19]; 17.5 g/Ha,70%
same,SORBI postemergence injury score 0-100,[20]; 31.3 ppm,85%
same,AVEFA preemergence injury score 0-100,wild oats (Avena fatua) [21]; 17.5 g/Ha,90%
same,EPHHL preemergence injury score 0-100,[22]; 17.5 g/Ha,50%
same,ABUTH preemergence injury score 0-100,[23]; 17.5 g/Ha,80%
same,VIOTR postemergence injury score 0-100,viola (Viola tricolor); 31.3 ppm,90%
COc1ccsc1S(=O)(=O)Nc1nc2c(Cl)cnc(OC)n2n1 [Compound 2],AMARE preemergence injury score 0-100,[1]; 8.8 g/Ha,95%
same,POLCO postemergence injury score 0-100,[2]; 7.8 ppm,90%
same,AMARE postemergence injury score 0-100,[3]; 7.8 ppm,98%
same,DIGSA preemergence injury score 0-100,[4]; 8.8 g/Ha,100%
same,SETFA preemergence injury score 0-100,[5]; 8.8 g/Ha,100%
same,STEME postemergence injury score 0-100,[6]; 7.8 ppm,98%
same,ALOMY preemergence injury score 0-100,[7]; 8.8 g/Ha,95%
same,XANST postemergence injury score 0-100,[8]; 7.8 ppm,60%
same,CHEAL preemergence injury score 0-100,[10]; 8.8 g/Ha,98%
same,SETFA postemergence injury score 0-100,[11]; 7.8 ppm,98%
same,ALOMY postemergence injury score 0-100,[12]; 7.8 ppm,70%
same,IPOHE postemergence injury score 0-100,[13]; 7.8 ppm,85%
same,AVEFA postemergence injury score 0-100,wild oats (Avena fatua) [14]; 7.8 ppm,90%
same,ECHCG preemergence injury score 0-100,[15]; 8.8 g/Ha,75%
same,CHEAL postemergence injury score 0-100,[16]; 7.8 ppm,90%
same,SORBI preemergence injury score 0-100,[17]; 8.8 g/Ha,100%
same,ABUTH postemergence injury score 0-100,[18]; 7.8 ppm,95%
same,IPOHE preemergence injury score 0-100,[19]; 8.8 g/Ha,80%
same,SORBI postemergence injury score 0-100,[20]; 7.8 ppm,98%
same,AVEFA preemergence injury score 0-100,wild oats (Avena fatua) [21]; 8.8 g/Ha,100%
same,EPHHL preemergence injury score 0-100,[22]; 8.8 g/Ha,90%
same,ABUTH preemergence injury score 0-100,[23]; 8.8 g/Ha,75%
same,VIOTR postemergence injury score 0-100,viola (Viola tricolor); 7.8 ppm,95%
